{
  "source": "paper PMC12226733",
  "about": "“Evolution of iGluR ligand specificity, polyamine regulation, and ion selectivity inferred from a placozoan epsilon receptor” (Communications Biology, 2025)",
  "key": {"GluA2 D611A + γ2": {"molecular_target": "T1, GluA2 D611A + γ2 (Homo sapiens, UniProt P42262, D611A)", "T1 construct": "expressed in transfected cells; host or cells: HEK-293T/17", "T1 sequence (P42262 25-883 D611A)": "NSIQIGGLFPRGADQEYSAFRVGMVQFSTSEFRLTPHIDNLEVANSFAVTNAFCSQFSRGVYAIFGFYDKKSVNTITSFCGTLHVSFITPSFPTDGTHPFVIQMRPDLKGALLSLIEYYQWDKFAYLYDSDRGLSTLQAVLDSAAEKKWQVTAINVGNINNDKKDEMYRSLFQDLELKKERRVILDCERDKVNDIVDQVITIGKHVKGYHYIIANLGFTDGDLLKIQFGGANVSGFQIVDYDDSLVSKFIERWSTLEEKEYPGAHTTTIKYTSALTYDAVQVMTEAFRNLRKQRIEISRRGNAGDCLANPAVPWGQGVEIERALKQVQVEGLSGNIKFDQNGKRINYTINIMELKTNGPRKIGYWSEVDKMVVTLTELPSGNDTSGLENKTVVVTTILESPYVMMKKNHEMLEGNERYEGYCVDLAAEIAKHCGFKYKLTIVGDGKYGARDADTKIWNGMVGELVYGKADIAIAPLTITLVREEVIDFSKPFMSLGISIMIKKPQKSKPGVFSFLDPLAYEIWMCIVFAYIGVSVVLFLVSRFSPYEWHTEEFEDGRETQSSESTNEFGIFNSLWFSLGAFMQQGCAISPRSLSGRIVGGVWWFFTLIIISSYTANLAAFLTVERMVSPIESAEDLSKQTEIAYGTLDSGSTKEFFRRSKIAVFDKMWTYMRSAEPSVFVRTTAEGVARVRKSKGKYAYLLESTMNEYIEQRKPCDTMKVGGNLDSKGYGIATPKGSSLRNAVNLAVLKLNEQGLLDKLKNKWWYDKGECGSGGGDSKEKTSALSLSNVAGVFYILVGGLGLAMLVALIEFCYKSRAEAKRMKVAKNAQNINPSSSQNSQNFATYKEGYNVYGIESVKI", "T1 sequence (Q9Y698 whole entry partner)": "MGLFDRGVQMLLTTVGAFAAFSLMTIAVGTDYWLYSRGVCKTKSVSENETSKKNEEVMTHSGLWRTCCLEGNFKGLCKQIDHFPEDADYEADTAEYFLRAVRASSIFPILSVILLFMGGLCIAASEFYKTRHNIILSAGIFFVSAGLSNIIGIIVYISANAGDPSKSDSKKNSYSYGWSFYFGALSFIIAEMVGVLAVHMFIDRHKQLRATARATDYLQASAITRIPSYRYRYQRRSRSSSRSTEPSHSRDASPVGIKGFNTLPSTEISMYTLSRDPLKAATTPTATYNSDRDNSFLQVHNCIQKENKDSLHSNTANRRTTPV", "test": "outside-out patch clamp, block by intracellular spermine, HEK-293T/17 cells;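 for Normalized conductance (Gnorm) GluA2 wild type + γ2: normalized to each receptor's own maximal conductance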", "format": "biochemical", "protocol": "(§1) Parallel experiments were carried out in human GluA2 homotetramers bearing equivalent Q/R/N and +4 site mutations to compare the regulation of voltage-dependent polyamine block within the broader context of mammalian receptors. Experimental design remained the same, except for using 10 mM glutamate as the agonist used to evoke membrane currents (Fig. 7a, d, g, and j). […] Their properties were accordingly compared to wildtype GluA2(Q) co-expressed with TARP-γ2.\n(§2) HEK-293T/17 cells (ATCC) were maintained in MEM supplemented with GlutaMAX and 10% fetal bovine serum (FBS) at 37 °C and 5% CO2. […] Transient transfections were carried out 48 h post-plating using the calcium phosphate precipitation method. After 6–8 hours, cells were washed twice with PBS and maintained in fresh medium. Cells transfected with mammalian GluA2 cDNA (plasmid vector described above) were returned to an incubator at 37 °C for 24–48 hours and cells transfected with Epsilon GluE1αA were incubated at 28 °C for 48–72 hours. In cells co-transfected with TARP-γ2, 30 μM NBQX was included in the medium to minimize AMPAR/auxiliary-induced cytotoxicity. All constructs were co-transfected with a plasmid encoding enhanced green fluorescent protein (eGFP) to identify transfected cells. Electrophysiology responses were recorded from outside-out patches excised from transfected cells. Recording pipettes were composed of borosilicate glass (3 to 6 megaohm, King Precision Glass) coated with dental wax to reduce electrical noise. All recordings were performed using Axopatch 200B amplifier (Molecular Devices, LLC). Current records were filtered at 5 or 10 kHz and sampled at 25–50 kHz. Series resistance (3 to 12 megaohms) was compensated by 95%. Recordings were performed at a range of holding potentials from −100 mV to 100 mV to study polyamine block. Data was acquired using pClamp9 software (Molecular Devices, LLC). All experiments were performed at room temperature. All chemicals were purchased from Sigma-Aldrich, unless otherwise indicated. External solution contained (in mM): 150 NaCl, 5 HEPES, 0.1 CaCl2, 0.1 MgCl, and […], pH 7.3–7.4. […] The osmotic pressure of all solutions was adjusted to 295 to 300 mOsm with sucrose. […] Stocks were thawed on the day of the experiment and used to prepared agonist-containing external solutions. Raw data for all electrophysiology experiments are provided in Supplementary Data 3. Current-voltage (I-V) relationships were fit using Origin 7 (OriginLab) using a ninth order polynomial function to estimate the reversal potential (Vrev).\n(§3) Agonist-evoked membrane conductance (G) was calculated using the following equation: G=I/(V−Vrev)\n(§4) Conductance-voltage (G-V) relationships were fit using Origin 7 (OriginLab) with the single permeant blocker model as done previously[46]: G=Gmax/1+[Spm]/Kd Where Gmax is the maximal conductance, [Spm] is the internal Spm concentration, and Kd is the dissociation constant.\n(§5) Kd is defined as: Kd=koff+kperm/kon=sumofexitrates/bindingrate\n(§6) And redefined as: Kd=g*exp(V/h)+L*exp(V/k) Where h and k are voltage dependencies of g and L, respectively, and at 0 mV: g=koff/konandL=kperm/kon"}, "GluA2(Q) wt + γ2": {"molecular_target": "T2, GluA2(Q) wt + γ2 (Homo sapiens, UniProt P42262)", "T2 construct": "expressed in transfected cells; host or cells: HEK-293T/17", "T2 sequence (P42262 25-883)": "as the sequence (P42262 25-883 D611A) above, with A587D counted along it", "T2 sequence (Q9Y698 whole entry partner)": "as the sequence (Q9Y698 whole entry partner) above", "test": "outside-out patch clamp, block by intracellular spermine, HEK-293T/17 cells", "format": "biochemical", "settings": "for Normalized conductance (Gnorm) GluA2 wild type + γ2 / Normalized current (Inorm) GluA2 wild type + γ2: single recordings and AVG", "protocol": "as §1, §2, §3, §4, §5, §6"}, "[1]": {"settings": "-100 mV, single recordings and AVG"}},
  "note": "Several values for one entry are separate records, joined by “and”; a condition that tells them apart may be missing. Identical values can stand only once.",
  "data": [
    {"smiles": "NCCCNCCCCNCCCN", "note": "[spermine]", "values": [
      {"measurement": "Normalized conductance (Gnorm) AMPA D611A + γ2", "setting": "GluA2 D611A + γ2; -40 mV, single recordings and AVG", "result": "0.83 and 0.87 and 0.84 and 0.92"},
      {"measurement": "Normalized conductance (Gnorm) AMPA D611A + γ2", "setting": "GluA2 D611A + γ2; -50 mV, single recordings and AVG", "result": "0.86 and 0.81 and 1.01 and 0.95 and 0.91"},
      {"measurement": "Normalized conductance (Gnorm) AMPA D611A + γ2", "setting": "GluA2 D611A + γ2; -60 mV, single recordings and AVG", "result": "0.89 and 0.96 and 0.95 and 0.94"},
      {"measurement": "Normalized conductance (Gnorm) AMPA D611A + γ2", "setting": "GluA2 D611A + γ2; -70 mV, single recordings and AVG", "result": "0.89 and 0.92 and 0.95 and 0.91"},
      {"measurement": "Normalized conductance (Gnorm) AMPA D611A + γ2", "setting": "GluA2 D611A + γ2; -80 mV, single recordings and AVG", "result": "0.89 and 0.86 and 0.96 and 0.90"},
      {"measurement": "Normalized conductance (Gnorm) AMPA D611A + γ2", "setting": "GluA2 D611A + γ2; -90 mV, single recordings and AVG", "result": "0.86 and 0.94 and 0.98 and 0.93"},
      {"measurement": "Normalized conductance (Gnorm) AMPA D611A + γ2", "setting": "GluA2 D611A + γ2; [1]", "result": "0.96 and 0.95 and 0.98"},
      {"measurement": "Normalized current (Inorm) AMPA D611A + γ2", "setting": "GluA2 D611A + γ2; [1]", "result": -1.00},
      {"measurement": "h, voltage dependency of block onset", "setting": "GluA2 D611A + γ2; GluA2 D611A + γ2", "result": "−58.8 ± 8.8", "unit": "mV"},
      {"measurement": "k, voltage dependency of block relief", "setting": "GluA2 D611A + γ2; GluA2 D611A + γ2", "result": "20.8 ± 3.7", "unit": "mV"},
      {"measurement": "Kd", "setting": "GluA2 D611A + γ2; GluA2 D611A + γ2, 30 µM internal Spm, 10 mM glutamate, read-out: Kd(0mV)", "result": "169 ± 54.6", "unit": "µM"},
      {"measurement": "Normalized conductance (Gnorm) GluA2 wild type + γ2", "setting": "GluA2(Q) wt + γ2; 0 mV", "result": "0.51 and 0.59 and 0.49 and 0.67 and 0.55 and 0.56"},
      {"measurement": "Normalized conductance (Gnorm) GluA2 wild type + γ2", "setting": "GluA2(Q) wt + γ2; 10 mV", "result": "0.45 and 0.34 and 0.59 and 0.41"},
      {"measurement": "Normalized current (Inorm) GluA2 wild type + γ2", "setting": "GluA2(Q) wt + γ2; 10 mV", "result": "0.0271 and 0.03 and 0.0219 and 0.0374 and 0.0215 and 0.0279"},
      {"measurement": "Normalized conductance (Gnorm) GluA2 wild type + γ2", "setting": "GluA2(Q) wt + γ2; 20 mV", "result": "0.46 and 0.44 and 0.31 and 0.56 and 0.39 and 0.43"},
      {"measurement": "Normalized current (Inorm) GluA2 wild type + γ2", "setting": "GluA2(Q) wt + γ2; 20 mV", "result": "0.06 and 0.0741 and 0.05 and 0.09 and 0.07"},
      {"measurement": "Normalized conductance (Gnorm) GluA2 wild type + γ2", "setting": "GluA2(Q) wt + γ2; 30 mV", "result": "0.53 and 0.56 and 0.39 and 0.59 and 0.50 and 0.51"},
      {"measurement": "Normalized current (Inorm) GluA2 wild type + γ2", "setting": "GluA2(Q) wt + γ2; 30 mV", "result": "0.12 and 0.15 and 0.10 and 0.13"},
      {"measurement": "Normalized conductance (Gnorm) GluA2 wild type + γ2", "setting": "GluA2(Q) wt + γ2; 40 mV", "result": "0.62 and 0.71 and 0.51 and 0.66 and 0.63"},
      {"measurement": "Normalized current (Inorm) GluA2 wild type + γ2", "setting": "GluA2(Q) wt + γ2; 40 mV", "result": "0.20 and 0.26 and 0.18 and 0.23 and 0.22"},
      {"measurement": "Normalized conductance (Gnorm) GluA2 wild type + γ2", "setting": "GluA2(Q) wt + γ2; 50 mV", "result": "0.72 and 0.83 and 0.63 and 0.75 and 0.82"},
      {"measurement": "Normalized current (Inorm) GluA2 wild type + γ2", "setting": "GluA2(Q) wt + γ2; 50 mV", "result": "0.30 and 0.38 and 0.28 and 0.34 and 0.37 and 0.33"},
      {"measurement": "Normalized conductance (Gnorm) GluA2 wild type + γ2", "setting": "GluA2(Q) wt + γ2; 60 mV", "result": "0.78 and 0.91 and 0.73 and 0.84 and 0.90 and 0.83"},
      {"measurement": "Normalized current (Inorm) GluA2 wild type + γ2", "setting": "GluA2(Q) wt + γ2; 60 mV", "result": "0.39 and 0.50 and 0.46 and 0.45"},
      {"measurement": "Normalized conductance (Gnorm) GluA2 wild type + γ2", "setting": "GluA2(Q) wt + γ2; 70 mV", "result": "0.82 and 0.96 and 0.81 and 0.89 and 0.95"},
      {"measurement": "Normalized current (Inorm) GluA2 wild type + γ2", "setting": "GluA2(Q) wt + γ2; 70 mV", "result": "0.49 and 0.62 and 0.51 and 0.57"},
      {"measurement": "Normalized conductance (Gnorm) GluA2 wild type + γ2", "setting": "GluA2(Q) wt + γ2; 80 mV", "result": "0.83 and 1.04 and 0.88 and 0.91 and 0.99 and 0.93"},
      {"measurement": "Normalized current (Inorm) GluA2 wild type + γ2", "setting": "GluA2(Q) wt + γ2; 80 mV", "result": "0.57 and 0.78 and 0.64 and 0.67 and 0.75 and 0.68"},
      {"measurement": "Normalized conductance (Gnorm) GluA2 wild type + γ2", "setting": "GluA2(Q) wt + γ2; 90 mV", "result": "0.86 and 0.93 and 1.02 and 0.94"},
      {"measurement": "Normalized current (Inorm) GluA2 wild type + γ2", "setting": "GluA2(Q) wt + γ2; 90 mV", "result": "0.68 and 0.77 and 0.73 and 0.87 and 0.76"},
      {"measurement": "Normalized current (Inorm) GluA2 wild type + γ2", "setting": "GluA2(Q) wt + γ2; 100 mV", "result": "0.71 and 0.89 and 0.76 and 1.01 and 0.84"},
      {"measurement": "Normalized conductance (Gnorm) GluA2 wild type + γ2", "setting": "GluA2(Q) wt + γ2; -10 mV", "result": "0.69 and 0.62 and 0.75"},
      {"measurement": "Normalized current (Inorm) GluA2 wild type + γ2", "setting": "GluA2(Q) wt + γ2; -10 mV", "result": -0.0852},
      {"measurement": "Normalized conductance (Gnorm) GluA2 wild type + γ2", "setting": "GluA2(Q) wt + γ2; -20 mV", "result": "0.78 and 0.82 and 0.74 and 0.85 and 0.80"},
      {"measurement": "Normalized conductance (Gnorm) GluA2 wild type + γ2", "setting": "GluA2(Q) wt + γ2; -30 mV", "result": "0.84 and 0.88 and 0.83 and 0.85 and 0.92 and 0.86"},
      {"measurement": "Normalized conductance (Gnorm) GluA2 wild type + γ2", "setting": "GluA2(Q) wt + γ2; -40 mV", "result": "0.90 and 0.92 and 0.89 and 0.96 and 0.91"},
      {"measurement": "Normalized conductance (Gnorm) GluA2 wild type + γ2", "setting": "GluA2(Q) wt + γ2; -50 mV", "result": "0.96 and 0.94 and 0.92 and 0.93 and 0.98 and 0.95"},
      {"measurement": "Normalized conductance (Gnorm) GluA2 wild type + γ2", "setting": "GluA2(Q) wt + γ2; -60 mV", "result": "0.99 and 0.97 and 0.98"},
      {"measurement": "Normalized conductance (Gnorm) GluA2 wild type + γ2", "setting": "GluA2(Q) wt + γ2; -70 mV", "result": "1.01 and 0.98 and 0.99 and 0.97 and 0.96"},
      {"measurement": "Normalized conductance (Gnorm) GluA2 wild type + γ2", "setting": "GluA2(Q) wt + γ2; -80 mV", "result": "1.01 and 0.98 and 1.00 and 0.99"},
      {"measurement": "Normalized conductance (Gnorm) GluA2 wild type + γ2", "setting": "GluA2(Q) wt + γ2; -90 mV", "result": "1.00 and 0.99 and 0.98"},
      {"measurement": "Normalized conductance (Gnorm) GluA2 wild type + γ2", "setting": "GluA2(Q) wt + γ2; -100 mV", "result": "1.02 and 1.00 and 0.95"},
      {"measurement": "Normalized current (Inorm) GluA2 wild type + γ2", "setting": "GluA2(Q) wt + γ2; -100 mV", "result": -1.00},
      {"measurement": "h, voltage dependency of block onset", "setting": "GluA2(Q) wt + γ2; GluA2(Q) wt + γ2", "result": "−16.7 ± 1.9", "unit": "mV"},
      {"measurement": "k, voltage dependency of block relief", "setting": "GluA2(Q) wt + γ2; GluA2(Q) wt + γ2", "result": "18.2 ± 3.0", "unit": "mV"},
      {"measurement": "Kd", "setting": "GluA2(Q) wt + γ2; GluA2(Q) wt + γ2, 30 µM internal Spm, 10 mM glutamate, read-out: Kd(0mV)", "result": "38.4 ± 11.9", "unit": "µM"},
      {"measurement": "h", "setting": "GluA2(Q) wt + γ2; fit of Gnorm vs voltage, GluA2 wild type + γ2, single recordings", "result": -13.23}
    ]}
  ]
}
